Counter-ions that a name gives are not always drawn.
Assays:
rat H3R = rat H3R (Rattus norvegicus (Rat), UniProt Q9QYN8); experiment: GTPγS functional assay, membranes from C6 cells expressing the rat H3R; format: biochemical; settings: for Emax: 5 min, read-out: Rat Maximum (%); for EC50: GTPγS agonist potency
Method: (§1) Membranes from HEK cells expressing the human H3R, or from C6 cells expressing the rat H3R, were prepared by homogenization in cold buffer containing 50 mM Tris-HCl (pH 7.4), 5 mM EDTA, 10 mM MgCl2, 1 mM benzamidine, 2 μg/ml aprotinin, 1 μg/ml leupeptin, and 1 μg/ml pepstatin. The homogenate was centrifuged at 40,000 g for 20 min at 4° C., and the resulting pellet was resuspended in 50 mM Tris-HCl (pH 7.4), 5 mM EDTA, and 10 mM MgCl2 and homogenized. Glycerol and bovine serum albumin were added to a final concentration of 10% glycerol and 1% bovine serum albumin. Membranes were diluted in GTPγS assay buffer (25 mM HEPES, 2.5 mM MgCl2, and 75 mM NaCl, pH 7.4) and 10 μg of membrane protein was incubated in a 96-well deep-well block in the presence of 5.0 μM unlabeled GDP, approximately 0.5 nM of [^35S]GTPγS, and increasing concentrations of test compounds. Samples were incubated at 37° C. for 5 min and the assays were terminated by the addition of cold buffer (50 mM Tris-HCl, 75 mM NaCl, and 2.5 mM MgCl2, pH 7.6) and subsequent harvesting onto a Packard Unifilter 96-well GF/B plate followed by extensive washing. Microscint 20 (PerkinElmer Life Sciences) was added to the samples, and bound [^35S]GTPγS was determined using the Topcount (Perkin Elmer Life Sciences). The percentage of [^35S]GTPγS bound in each sample was calculated as a percentage of that bound to control samples incubated in the absence of the H3R agonists (basal). Data were analyzed from experiments performed in triplicate using GraphPad Prism to obtain pEC50 values, Hill slopes, and maximal % response.

[1] = target: T1, human histamine H3 receptor (Homo sapiens (Human), UniProt Q9Y5N1); experiment: Radioligand competition binding assay, human H3 receptor; settings: [3H]-N-α-methylhistamine competition binding
T1 sequence (Q9Y5N1 whole entry): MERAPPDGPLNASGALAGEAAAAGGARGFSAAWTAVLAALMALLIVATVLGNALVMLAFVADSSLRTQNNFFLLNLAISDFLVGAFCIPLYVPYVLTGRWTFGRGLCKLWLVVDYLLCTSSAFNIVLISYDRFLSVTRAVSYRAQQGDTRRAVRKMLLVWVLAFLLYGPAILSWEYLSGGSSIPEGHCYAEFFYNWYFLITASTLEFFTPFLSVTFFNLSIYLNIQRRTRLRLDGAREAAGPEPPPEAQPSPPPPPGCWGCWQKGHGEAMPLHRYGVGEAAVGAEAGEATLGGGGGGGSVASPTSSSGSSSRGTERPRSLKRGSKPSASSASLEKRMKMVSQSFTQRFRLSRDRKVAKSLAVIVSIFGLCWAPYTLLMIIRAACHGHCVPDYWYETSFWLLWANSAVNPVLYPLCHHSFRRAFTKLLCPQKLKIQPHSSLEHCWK

[2] = target: T2, rat histamine H3 receptor (Rattus norvegicus (Rat), UniProt Q9QYN8); experiment: Radioligand competition binding assay, rat H3 receptor; settings: [3H]-N-α-methylhistamine competition binding
T2 sequence (Q9QYN8 whole entry): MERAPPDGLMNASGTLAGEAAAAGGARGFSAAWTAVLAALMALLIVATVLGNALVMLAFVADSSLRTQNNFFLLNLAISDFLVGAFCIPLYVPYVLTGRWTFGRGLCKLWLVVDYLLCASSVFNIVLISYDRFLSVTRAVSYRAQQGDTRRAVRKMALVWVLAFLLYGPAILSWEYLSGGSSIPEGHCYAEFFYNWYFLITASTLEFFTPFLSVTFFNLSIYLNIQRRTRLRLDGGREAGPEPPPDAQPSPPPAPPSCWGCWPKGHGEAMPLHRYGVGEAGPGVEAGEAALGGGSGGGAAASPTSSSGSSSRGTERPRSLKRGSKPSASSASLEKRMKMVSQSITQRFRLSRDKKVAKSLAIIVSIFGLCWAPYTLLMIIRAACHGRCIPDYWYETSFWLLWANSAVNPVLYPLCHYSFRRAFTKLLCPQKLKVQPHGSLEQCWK
Method: To determine the effectiveness of representative compounds of this invention as histamine-3 receptor ligands (H3 receptor ligands), the following tests were conducted according to previously described methods (see European Journal of Pharmacology 1990, 188, 219-227; Journal of Pharmacology and Experimental Therapeutics 1995, 275, 598-604; Journal of Pharmacology and Experimental Therapeutics 1996, 276, 1009-1015; and Biochemical Pharmacology 1973, 22, 3099-3108).
The rat H3 receptor was cloned and expressed in cells, and competition binding assays carried out, according to methods previously described (see Esbenshade, et al. Journal of Pharmacology and Experimental Therapeutics 2005, 313, 165-175; Esbenshade et al., Biochemical Pharmacology 2004, 68, 933-945; and Krueger, et al. Journal of Pharmacology and Experimental Therapeutics 2005, 314, 271-281). Membranes were prepared from C6 or HEK293 cells, expressing the rat histamine H3 receptor, by homogenization on ice in TE buffer (50 mM Tris-HCl buffer, pH 7.4, containing 5 mM EDTA), 1 mM benzamidine, 2 μg/ml aprotinin, 1 μg/ml leupeptin, and 1 μg/ml pepstatin. The homogenate was centrifuged at 40,000 g for 20 minutes at 4° C. This step was repeated, and the resulting pellet was resuspended in TE buffer. Aliquots were frozen at −70° C. until needed. On the day of assay, membranes were thawed and diluted with TE buffer.
Membrane preparations were incubated with [^3H]-N-α-methylhistamine (0.5-1.0 nM) in the presence or absence of increasing concentrations of ligands for H3 receptor competition binding. The binding incubations were conducted in a final volume of 0.5 ml TE buffer at 25° C. and were terminated after 30 minutes. Thioperamide (30 μM) was used to define non-specific binding. All binding reactions were terminated by filtration under vacuum onto polyethylenimine (0.3%) presoaked Unifilters (Perkin Elmer Life Sciences) or Whatman GF/B filters followed by three brief washes with 2 ml of ice-cold TE buffer. Bound radiolabel was determined by liquid scintillation counting. For all of the radioligand competition binding assays, IC50 values and Hill slopes were determined by Hill transformation of the data and pKi values were determined by the Cheng-Prusoff equation.

human H3R = human H3R (Homo sapiens (Human), UniProt Q9Y5N1); experiment: GTPγS functional assay, membranes from HEK cells expressing the human H3R; format: biochemical; settings: for Emax: 5 min, [35S]GTPγS bound as percentage of basal, read-out: Human Maximum (%); for EC50: GTPγS agonist potency
human H3R, sequence (Q9Y5N1 whole entry): as the sequence (Q9Y5N1 whole entry) above
Method: as §1

[3] = target: T1, human histamine H3 receptor; experiment: FLIPR functional assay (Ca2+, HEK-293 cells coexpressing Gαqi5), human H3 receptor; format: cell-based; settings: for EC50: FLIPR agonist potency; for Emax: HEK293, FLIPR, percentage of the response to 1 μM RAMH, read-out: Human Maximum (%)
Text: (§2) There are many methods available to show the effectiveness of compounds as histamine H3 receptor ligands. Histamine H3 receptors from mammalian species have been cloned. Methods to clone, express, and assess the potency and functional activity of such cloned genes are well known to those skilled in the art of molecular biology. […] In the present case, to determine the potency and effectiveness of representative compounds of this invention as histamine-H3 receptor ligands (H3 receptor ligands), the following tests were conducted according to previously described methods (see Esbenshade, et al., Journal of Pharmacology and Experimental Therapeutics 2003, 305, 887-896, Esbenshade, et al., Biochemical Pharmacology 2004, 68, 933-945, and in Krueger, et al., Journal of Pharmacology and Experimental Therapeutics 2005, 314, 271-281): histamine H3 receptors were cloned and stably expressed in HEK-293 (human embryonic kidney) cells coexpressing a Gαqi5. Before testing, cells were loaded with a Ca^+2 sensitive fluorescent dye, in this case Fluo-4. For partial agonist or full agonist ligands, addition of compound to the cells led to an increase in intracellular Ca^+2 which was detected by FLIPR (Fluorescence Imaging Plate Reader; Molecular Devices, Sunnyvale, Calif.) technology. The fluorescence intensities measured before addition of the test compound were subtracted from the fluorescence intensities at later time points. Peak response values determined at each concentration of ligand were expressed as a percentage of the response obtained with a maximal concentration (1 μM) of the full agonist R-α-methyl-histamine (RAMH). Concentration versus response data were analyzed to obtain compound potency as EC50 values for full and partial agonists.

[4] = target: T2, rat histamine H3 receptor; experiment: FLIPR functional assay (Ca2+, HEK-293 cells coexpressing Gαqi5), rat H3 receptor; format: cell-based; settings: for EC50: FLIPR agonist potency; for Rat Maximum (%): FLIPR, percentage of the response to 1 μM RAMH
Text: as §2

[5] = [35S]GTPγS bound as percentage of basal

rat H3R, sequence (Q9QYN8 whole entry): as the sequence (Q9QYN8 whole entry) above

Row | Compound | Emax (rat H3R; [5]) | EC50 (rat H3R) | Ki [1] | Ki [2] | Emax (human H3R) | EC50 (human H3R) | EC50 [3] | Emax [3] | EC50 [4] | Rat Maximum (%) [4] | Rat Maximum (%) (rat H3R; [5])
1 | CN1CCN(c2ccnc(N)n2)CC1 [Example 13, 4-(4-methylpiperazin-1-yl)pyrimidin-2-amine] | 135% | 53.7 nM | 13.8 nM | 7.41 nM | 127% | 129 nM |  |  |  |  | 
2 | CC(C)(C)OC(=O)N1CCC(CNc2ccnc(N)n2)CC1 [Example 15, tert-butyl 4-((2-aminopyrimidin-4-ylamino)methyl)piperidine-1-carboxylate] | 138% | 7410 nM | > 355 nM | > 331 nM | 117% | 4790 nM | 43.6 nM | 39% |  |  | 
3 | Nc1nccc(NC2CCNCC2)n1 [Example 24, N^4-(piperidin-4-yl)pyrimidine-2,4-diamine dihydrochloride] |  |  | 324 nM | 105 nM |  |  |  |  |  |  | 
4 | Cl.Cl.Nc1nccc(N[C@@H]2CCNC2)n1 [Example 18, (R)—N^4-(pyrrolidin-3-yl)pyrimidine-2,4-diamine dihydrochloride] | 162% | 1620 nM | > 363 nM | 162 nM | 179% | 2510 nM |  |  | 74 nM | 78.6% | 
5 | CN(C)CCNc1ccnc(N)n1 [Example 2, N^4-(2-(dimethylamino)ethyl)pyrimidine-2,4-diamine 2,2,2-trifluoroacetate] | 183% | 339 nM | 53.7 nM | 20 nM | 160% | 525 nM | 85.1 nM | 77.7% |  |  | 
6 | CN(C)CCN(C)c1ccnc(N)n1 [Example 3, N^4-(2-(dimethylamino)ethyl)-N^4-methylpyrimidine-2,4-diamine dihydrochloride] |  |  | 257 nM | > 309 nM |  |  |  |  |  |  | 
7 | C[C@@H](N)Cc1c[nH]cn1 [R-α-methyl-histamine (RAMH), R-α-methyl-histamine, reference compound] | 224% |  |  |  | 240% |  |  |  |  |  | 
8 | CN(C)CCCN(C)c1ccnc(N)n1.O=C(O)C(O)C(O)C(=O)O [Example 9, N^4-(3-(dimethylamino)propyl)-N^4-methylpyrimidine-2,4-diamine(2R,3R)-2,3-dihydroxysuccinate] |  | 1950 nM | 182 nM | > 309 nM |  |  |  |  |  |  | 110%
9 | Nc1nccc(NC2CCN(Cc3ccccc3)CC2)n1 [Example 12, N^4-(1-benzylpiperidin-4-yl)pyrimidine-2,4-diamine 2,2,2-trifluoroacetate] | 136% | 324 nM | 72.4 nM | 24.5 nM | 139% | 871 nM |  |  |  |  | 
10 | Nc1nccc(NC2CNC2)n1 [Example 22, N^4-(azetidin-3-yl)pyrimidine-2,4-diamine trihydrochloride] | 156% | 676 nM | 33.1 nM | 97.7 nM | 216% | 457 nM |  |  |  |  | 
11 | NCCCNc1ccnc(N)n1 [Example 6, N^4-(3-aminopropyl)pyrimidine-2,4-diamine dihydrochloride] | 168% | 309 nM | 61.7 nM | 13.2 nM | 162% | 537 nM | 13.4 nM | 93% |  |  | 
12 | CNCCCNc1ccnc(N)n1 [Example 7, N^4-(3-(methylamino)propyl)pyrimidine-2,4-diamine dihydrochloride] |  |  | 28.2 nM | 81.3 nM |  |  |  |  |  |  | 
13 | Nc1nccc(N2C[C@H]3CN(Cc4ccccc4)C[C@H]3C2)n1 [Example 19, 4-((3aR,6aS)-5-benzylhexahydropyrrolo[3,4-c]pyrrol-2(1H)-yl)pyrimidin-2-amine] | 116% | 447 nM | 158 nM | 170 nM |  |  | 2110 nM | 50.2% |  |  | 
14 | Nc1nccc(N2CCNCC2)n1 [Example 25, 4-(piperazin-1-yl)pyrimidin-2-amine dihydrochloride] | 141% | 30.2 nM | 24 nM | 5.75 nM | 150% | 132 nM |  |  |  |  | 
15 | Nc1nccc(N2CCC3(CC2)CNC3)n1 [Example 23, 4-(2,7-diazaspiro[3.5]nonan-7-yl)pyrimidin-2-amine trihydrochloride] | 126% | 110 nM | 67.6 nM | 12.3 nM | 147% | 513 nM |  |  |  |  | 
16 | CN(CCCN)c1ccnc(N)n1 [Example 8, N^4-(3-aminopropyl)-N^4-methylpyrimidine-2,4-diamine dihydrochloride] |  |  | 316 nM | 195 nM |  |  |  |  |  |  | 
17 | Nc1nccc(N2CCCN(Cc3ccccc3)CCC2)n1 [Example 21, 4-(5-benzyl-1,5-diazocan-1-yl)pyrimidin-2-amine] | 135% | 214 nM | 162 nM | 55 nM | 120% | 115 nM |  |  |  |  | 
18 | CC(C)(C)OC(=O)N1CCN(c2ccnc(N)n2)CC1 [Example 14, tert-butyl 4-(2-aminopyrimidin-4-yl)piperazine-1-carboxylate] |  |  | > 380 nM | > 355 nM |  |  | 316 nM | 67.6% |  |  | 
19 | CC(C)(C)OC(=O)N1CC[C@@H](Nc2ccnc(N)n2)C1 [Example 17, (R)-tert-butyl 3-(2-aminopyrimidin-4-ylamino)pyrrolidine-1-carboxylate] | 130% | 2340 nM | > 363 nM | > 339 nM |  |  |  |  | 4790 nM | 75.8% | 
20 | CC(C)(CN)CNc1ccnc(N)n1 [Example 11, N^4-(3-amino-2,2-dimethylpropyl)pyrimidine-2,4-diamine] |  |  | > 339 nM | > 316 nM | 111% | 5750 nM |  |  |  |  | 
